Here are results for one compound from PMC3444501, “Therapeutic Effects of Astragaloside IV on Myocardial Injuries: Multi-Target Identification and Network Analysis” (PLoS ONE, 2012).

The test system of one assay is T1, calcineurin (CN).
T1 construct: gene Ppp3ca; with calcineurin B (CnB, regulatory subunit)
Kind of assay: calcineurin activity kit (RII phosphopeptide, malachite green) in rat VSMCs after 24-h pretreatment. It counts as cell-based.

Assay [1] concerns the target angiotensin-converting enzyme (ACE) (Homo sapiens, UniProt P12821). Kind of assay: ACE activity of HUVECs (hippuric acid release from HHL) after 20-min incubation with AGS-IV. The format is cell-based.

Sequence of angiotensin-converting enzyme (ACE) (P12821 30-1306): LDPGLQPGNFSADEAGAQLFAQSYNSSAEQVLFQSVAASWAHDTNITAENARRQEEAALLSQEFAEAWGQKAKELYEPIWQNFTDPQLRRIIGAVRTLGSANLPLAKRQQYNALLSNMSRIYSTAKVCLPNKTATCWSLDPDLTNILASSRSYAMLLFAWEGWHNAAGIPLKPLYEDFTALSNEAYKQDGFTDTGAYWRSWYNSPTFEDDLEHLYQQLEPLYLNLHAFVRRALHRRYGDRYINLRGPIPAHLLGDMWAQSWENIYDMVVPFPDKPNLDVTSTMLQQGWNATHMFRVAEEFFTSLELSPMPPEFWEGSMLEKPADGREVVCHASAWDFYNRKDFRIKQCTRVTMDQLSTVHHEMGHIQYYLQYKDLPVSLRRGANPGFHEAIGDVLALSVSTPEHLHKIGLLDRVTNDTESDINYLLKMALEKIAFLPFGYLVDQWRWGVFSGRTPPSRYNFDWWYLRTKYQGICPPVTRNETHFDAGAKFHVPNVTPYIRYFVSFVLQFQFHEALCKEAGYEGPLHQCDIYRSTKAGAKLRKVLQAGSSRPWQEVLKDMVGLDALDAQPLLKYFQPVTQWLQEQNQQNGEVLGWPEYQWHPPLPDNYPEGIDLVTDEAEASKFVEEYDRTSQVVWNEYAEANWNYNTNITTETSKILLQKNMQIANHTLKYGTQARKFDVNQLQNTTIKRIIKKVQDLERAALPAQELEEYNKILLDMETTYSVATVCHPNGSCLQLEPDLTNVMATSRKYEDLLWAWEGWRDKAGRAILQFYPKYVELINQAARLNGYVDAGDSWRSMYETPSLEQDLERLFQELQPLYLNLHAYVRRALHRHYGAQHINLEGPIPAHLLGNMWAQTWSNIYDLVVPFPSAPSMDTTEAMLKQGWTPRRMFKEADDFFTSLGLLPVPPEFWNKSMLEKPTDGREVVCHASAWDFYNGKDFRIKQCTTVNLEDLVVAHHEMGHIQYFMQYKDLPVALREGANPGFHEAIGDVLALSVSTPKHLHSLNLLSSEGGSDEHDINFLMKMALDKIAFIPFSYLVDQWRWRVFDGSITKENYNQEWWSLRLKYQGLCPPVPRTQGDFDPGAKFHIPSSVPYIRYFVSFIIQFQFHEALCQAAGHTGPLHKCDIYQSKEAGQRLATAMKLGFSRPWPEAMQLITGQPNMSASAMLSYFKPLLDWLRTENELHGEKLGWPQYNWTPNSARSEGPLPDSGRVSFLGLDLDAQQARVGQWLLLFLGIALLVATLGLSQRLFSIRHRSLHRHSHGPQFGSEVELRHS

As for `CC(C)(O)[C@@H]1CC[C@](C)([C@H]2[C@@H](O)C[C@@]3(C)[C@@H]4C[C@H](O[C@@H]5O[C@H](CO)[C@@H](O)[C@H](O)[C@H]5O)[C@H]5C(C)(C)[C@@H](O[C@@H]6OC[C@@H](O)[C@H](O)[C@H]6O)CC[C@@]56C[C@@]46CC[C@]23C)O1` [AGS-IV, Astragaloside IV], the IC50 in the assay on calcineurin (CN) worked out at 403 nM; in assay [1] it was 268 nM.
